Experimental data published in ChEMBL document CHEMBL3885881, “DrugMatrix”.

Species on record: Rattus norvegicus
Assay: DrugMatrix - Regimen: Daily Repeat
Format: toxicity, organism-based, Sprague-Dawley
Set-up: regimen Daily Repeat, gender Male, age 6-8 weeks
Conditions: in vivo, iv, vehicle 100 % SALINE; for ABSOLUTE BASOPHIL / ABSOLUTE EOSINOPHIL / ABSOLUTE LYMPHOCYTE / ABSOLUTE MONOCYTE / ABSOLUTE SEGMENTED NEUTROPHIL / BASOPHIL / EOSINOPHIL / ERYTHROCYTE COUNT / HEMATOCRIT / HEMOGLOBIN / LEUKOCYTE COUNT / LYMPHOCYTE / MEAN CORPUSCULAR HEMOGLOBIN / MEAN CORPUSCULAR HEMOGLOBIN CONCENTRATION / MEAN CORPUSCULAR VOLUME / MONOCYTE / NEUTROPHIL / NUCLEATED RED BLOOD CELLS / PLATELET COUNT: tissue Blood; for ALANINE AMINOTRANSFERASE / ALBUMIN / ALKALINE PHOSPHATASE / ASPARTATE AMINOTRANSFERASE / BLOOD UREA NITROGEN / CARBON DIOXIDE / CHLORIDE / CHOLESTEROL / CREATINE PHOSPHOKINASE / CREATININE / GLUCOSE / LACTATE DEHYDROGENASE / LIPASE / PHOSPHORUS / POTASSIUM / SODIUM / TOTAL BILIRUBIN / TOTAL PROTEIN / URIC ACID: tissue Plasma
[1] = 0 mg/kg, 72 h, dose level Control, time 3 day
[2] = 0 mg/kg, 120 h, dose level Control, time 5 day
[3] = 2 mg/kg, 72 h, dose level Low, time 3 day

Cc1ccc(N(CC2=NCCN2)c2cccc(O)c2)cc1 [PHENTOLAMINE]
ABSOLUTE BASOPHIL [1]: 0 CELLS/uL | ABSOLUTE EOSINOPHIL [1]: 53.17 CELLS/uL | ABSOLUTE LYMPHOCYTE [1]: 13731.5 CELLS/uL | ABSOLUTE MONOCYTE [1]: 186.17 CELLS/uL | ABSOLUTE SEGMENTED NEUTROPHIL [1]: 1645.83 CELLS/uL | BASOPHIL [1]: 0% | EOSINOPHIL [1]: 0.33% | ERYTHROCYTE COUNT [1]: 5.57 x10E6/uL | HEMATOCRIT [1]: 36.33% | HEMOGLOBIN [1]: 13.47 G/DL | LEUKOCYTE COUNT [1]: 15.62 x10E3/uL | LYMPHOCYTE [1]: 88.5% | MEAN CORPUSCULAR HEMOGLOBIN [1]: 24.22 pg | MEAN CORPUSCULAR HEMOGLOBIN CONCENTRATION [1]: 37.1 G/DL | MEAN CORPUSCULAR VOLUME [1]: 65.35 fL | MONOCYTE [1]: 1.17% | NEUTROPHIL [1]: 10% | NUCLEATED RED BLOOD CELLS [1]: 0.17 /100WBC | PLATELET COUNT [1]: 1295.5 x10E3/uL | ALANINE AMINOTRANSFERASE [1]: 46.83 u/L | ALBUMIN [1]: 4.37 G/DL | ALKALINE PHOSPHATASE [1]: 414.33 u/L | ASPARTATE AMINOTRANSFERASE [1]: 72.5 u/L | BLOOD UREA NITROGEN [1]: 17 mg/dL | CARBON DIOXIDE [1]: 23.5 mmol/L | CHLORIDE [1]: 102 MEQ/L | CHOLESTEROL [1]: 80.33 mg/dL | CREATINE PHOSPHOKINASE [1]: 207.83 u/L | CREATININE [1]: 0.22 mg/dL | GLUCOSE [1]: 172.17 mg/dL | LACTATE DEHYDROGENASE [1]: 131 u/L | LIPASE [1]: 10.33 u/L | PHOSPHORUS [1]: 11.75 mg/dL | POTASSIUM [1]: 6.83 MEQ/L | SODIUM [1]: 145.28 MEQ/L | TOTAL BILIRUBIN [1]: 0.22 mg/dL | TOTAL PROTEIN [1]: 6.22 G/DL | URIC ACID [1]: 1.9 mg/dL | ABSOLUTE BASOPHIL [2]: 0 CELLS/uL | ABSOLUTE EOSINOPHIL [2]: 33 CELLS/uL | ABSOLUTE LYMPHOCYTE [2]: 12184 CELLS/uL | ABSOLUTE MONOCYTE [2]: 108 CELLS/uL | ABSOLUTE SEGMENTED NEUTROPHIL [2]: 958.33 CELLS/uL | BASOPHIL [2]: 0% | EOSINOPHIL [2]: 0.17% | ERYTHROCYTE COUNT [2]: 5.9 x10E6/uL | HEMATOCRIT [2]: 36.58% | HEMOGLOBIN [2]: 13.33 G/DL | LEUKOCYTE COUNT [2]: 13.28 x10E3/uL | LYMPHOCYTE [2]: 91.17% | MEAN CORPUSCULAR HEMOGLOBIN [2]: 22.67 pg | MEAN CORPUSCULAR HEMOGLOBIN CONCENTRATION [2]: 36.47 G/DL | MEAN CORPUSCULAR VOLUME [2]: 62.13 fL | MONOCYTE [2]: 0.83% | NEUTROPHIL [2]: 7.83% | NUCLEATED RED BLOOD CELLS [2]: 0.33 /100WBC | PLATELET COUNT [2]: 1475.33 x10E3/uL | ALANINE AMINOTRANSFERASE [2]: 47 u/L | ALBUMIN [2]: 4.35 G/DL | ALKALINE PHOSPHATASE [2]: 368.33 u/L | ASPARTATE AMINOTRANSFERASE [2]: 90.83 u/L | BLOOD UREA NITROGEN [2]: 15.5 mg/dL | CARBON DIOXIDE [2]: 26.5 mmol/L | CHLORIDE [2]: 103.33 MEQ/L | CHOLESTEROL [2]: 71.83 mg/dL | CREATINE PHOSPHOKINASE [2]: 585.33 u/L | CREATININE [2]: 0.19 mg/dL | GLUCOSE [2]: 171.17 mg/dL | LACTATE DEHYDROGENASE [2]: 388.83 u/L | LIPASE [2]: 10.83 u/L | PHOSPHORUS [2]: 11.75 mg/dL | POTASSIUM [2]: 6.21 MEQ/L | SODIUM [2]: 143.7 MEQ/L | TOTAL BILIRUBIN [2]: 0.17 mg/dL | TOTAL PROTEIN [2]: 6.17 G/DL | URIC ACID [2]: 1.98 mg/dL | ABSOLUTE BASOPHIL [3]: 0 CELLS/uL | ABSOLUTE EOSINOPHIL [3]: 44.67 CELLS/uL | ABSOLUTE LYMPHOCYTE [3]: 11097.67 CELLS/uL | ABSOLUTE MONOCYTE [3]: 122.33 CELLS/uL | ABSOLUTE SEGMENTED NEUTROPHIL [3]: 968.67 CELLS/uL | BASOPHIL [3]: 0% | EOSINOPHIL [3]: 0.33% | ERYTHROCYTE COUNT [3]: 5.48 x10E6/uL | HEMATOCRIT [3]: 35.63% | HEMOGLOBIN [3]: 13.4 G/DL | LEUKOCYTE COUNT [3]: 12.23 x10E3/uL | LYMPHOCYTE [3]: 90.67% | MEAN CORPUSCULAR HEMOGLOBIN [3]: 24.5 pg | MEAN CORPUSCULAR HEMOGLOBIN CONCENTRATION [3]: 37.6 G/DL | MEAN CORPUSCULAR VOLUME [3]: 65.03 fL | MONOCYTE [3]: 1% | NEUTROPHIL [3]: 8% | NUCLEATED RED BLOOD CELLS [3]: 0 /100WBC | PLATELET COUNT [3]: 1379.67 x10E3/uL | ALANINE AMINOTRANSFERASE [3]: 31.67 u/L | ALBUMIN [3]: 4.47 G/DL | ALKALINE PHOSPHATASE [3]: 406 u/L | ASPARTATE AMINOTRANSFERASE [3]: 74 u/L | BLOOD UREA NITROGEN [3]: 18.67 mg/dL | CARBON DIOXIDE [3]: 19.67 mmol/L | CHLORIDE [3]: 104.67 MEQ/L | CHOLESTEROL [3]: 76.67 mg/dL | CREATINE PHOSPHOKINASE [3]: 368.67 u/L | CREATININE [3]: 0.22 mg/dL | GLUCOSE [3]: 166 mg/dL | LACTATE DEHYDROGENASE [3]: 137.33 u/L | LIPASE [3]: 10.33 u/L | PHOSPHORUS [3]: 12.63 mg/dL | POTASSIUM [3]: 6.72 MEQ/L | SODIUM [3]: 145.53 MEQ/L | TOTAL BILIRUBIN [3]: 0.13 mg/dL | TOTAL PROTEIN [3]: 6.27 G/DL
